Test results taken from patent publication US4368267A, “Epoxidation of lower α-olefins” (priority 1980, dated 1983).
Where a name gives a salt, the structure may show the parent alone.

Assays:
[1] = tested on: P(40), P(80), S(80) cell fractions of Methylosinus sp. (CRL-15, NRRL B-11,202); assay: Oxidation of n-alkanes and n-alkenes by cell fractions; format: biochemical; conditions: for % Inhibition, Propylene-Epoxidizing Activity / % Inhibition, Methane-Hydroxylating Activity / Methane-Oxidizing Activity in presence of metal / Propylene-Oxidizing Activity in presence of metal: P(40) fraction; for % Inhibition, Propylene-Epoxidizing Activity / % Inhibition, Methane-Hydroxylating Activity: inhibitor 10^-3 M; for % Inhibition, Propylene-Epoxidizing Activity: uninhibited rate 4.1; for % Inhibition, Methane-Hydroxylating Activity: uninhibited rate 4.5; for Rate of Product Formation (substrate to 1,2-epoxide or alcohol): P(40) particulate fraction, 30° C.; for Methane-Oxidizing Activity in presence of metal / Propylene-Oxidizing Activity in presence of metal: metal 10^-3 M; for Methane-Oxidizing Activity in presence of metal: control 4.0; for Propylene-Oxidizing Activity in presence of metal: control […]
Procedure: Cells were washed twice with 25 mM potassium phosphate buffer, pH 7.0 containing 5 mM MgCl2. Cells were suspended in the same buffer. The cell suspensions at 4° C. were disintegrated by a single passage through a French Pressure cell (15,000 lb./in.^2) and centrifuged at 5000×g. for 15 min. to remove unbroken bacteria. The supernatant solution (crude extract) was then centrifuged at 40,000×g. for 30 min., yielding particulate P(40) and soluble S(40) fractions. The S(40) fraction was subsequently centrifuged at 80,000×g. for 60 min., yielding particulate P(80) and soluble S(80) fractions. The particulate fractions [P(40) and P(80)] were suspended in 25 mM potassium phosphate buffer, pH 7.0, containing 5 mM MgCl2 and homogenized at 4° C.
[…] The reaction mixtures contained in 1.0 ml: 150 mM potassium phosphate buffer, pH 7.0 containing 5 mM MgCl2, 0.6 ml; […] NADH, and cellular fraction.
Reaction mixtures were contained in 10 ml vials at 4° C. Vials were sealed with rubber caps. The gaseous phase in the vials was removed using vacuum and then was replaced with a gas mixture of methane or propylene and oxygen at a 1:1, v/v ratio. Oxidation of other gaseous n-alkanes and n-alkenes was examined as described above. For liquid substrates, 10 μl of substrate was used directly.
The products of epoxidation of n-alkenes and hydroxylation of n-alkanes were assayed by flame ionization gas chromatography using a stainless steel column (12'×1/8") packed with 10% Carbowax 20 M on 80/100 Chromosorb W and Porapak Q column. The column temperature was maintained isothermally at 120° C. The carrier gas flow rate was 30 ml/min. of helium. The various products were identified by retention time comparisons and co-chromatography with authentic standards.
Specific activities were expressed as μ moles of products formed per hour per mg. protein. Concentrations of protein in various fractions were determined by the method of Lowry et al., J. Biol. Chem. 193: 265-275 (1951).

[2] = tested on: Methylococcus capsulatus (CRL M1, NRRL B-11,219); assay: Oxidation/epoxidation by washed cell suspensions; format: cell-based; conditions: methane-grown washed cells
[3] = tested on: Methylobacter capsulatus Y (NRRL B-11,201); assay: Methane hydroxylation and propylene epoxidation by washed cell suspensions; format: cell-based; conditions: Propylene + 5 mM stimulator compound
Procedure: (§1) The pH of the nutrient medium was adjusted to 7.0 by the addition of acid or base and 50 ml aliquots of the nutrient medium was charged into a plurality of 300 ml shake flasks. The shake flasks were inoculated with an inoculating loop of cells from an agar plate containing homogeneous colonies of the microorganisms on the plate (the purity of the isolates were confirmed by microscopic examination). The isolates had been maintained on agar plates under an atmosphere of methane and air having a 1:1 v/v gas ratio which had been transferred every two weeks. The gaseous phase of the inoculated flasks was then replaced with a gas mixture comprised of methane and air having a ratio of 1:1 on a v/v basis. The inoculated flasks were sealed air tight and were incubated on a rotary shaker of orbital radius 2.5 cm at 250 rpm and at 30° C. for two days until the turbidity in the medium had developed.
(§2) The cells were harvested by centrifugation at 10,000 ×g at 4° C. for 30 minutes. The cell pellet was washed twice with a 0.15 M phosphate buffer at a pH of 7.0 (containing 0.002 M MgCl2). The washed cells were then suspended in a 0.15 M phosphate buffer at pH 7.0.
(§3) A 0.5 ml aliquot of each washed cell suspension (2 mg cells) was put into 10 ml vials at 4° C. which were sealed with a rubber cap. […] It was then incubated at 30° C. on a rotary shaker at 300 rpm. Samples of product (3 μl) were withdrawn periodically with a microsyringe and the products were analyzed by gas chromatography (ionization flame detector column).
Several experiments were carried out using a plurality of compounds capable of generating the necessary reducing power (NADH2 or NADPH2) required for the epoxidation of alkenes or dienes. […]

[4] = tested on: Methylococcus capsulatus strain MC; assay: Stimulation of propylene epoxidation in cell suspensions; format: cell-based; conditions: Propylene + 5 mM stimulator compound
Procedure: as §1, §2
(§4) A 0.5 ml aliquot of each washed cell suspension (2 mg cells) was put into 10 ml vials at 4° C. which were sealed with a rubber cap. The gaseous phase of the vials was removed with vacuum and then was replaced with a gas mixture of alkene and oxygen at a 1:1 v/v ratio. It was then incubated at 30° C. on a rotary shaker at 300 rpm. Samples of product (3 μl) were withdrawn periodically with a microsyringe and the products were analyzed by gas chromatography (ionization flame detector column).
(§5) Several experiments were carried out using a plurality of compounds capable of generating the necessary reducing power (NADH2 or NADPH2) required for the epoxidation of alkenes or dienes. These experiments were carried out using cell suspensions of methane grown methylotrophs using the procedure as described in Example 1 except that a stimulator compound was added to the reaction medium.

[5] = tested on: whole cell suspensions of methylotrophs (C1 -utilizing microbes); conditions: 2-butanol added; biocatalyst from C1 -C4 gaseous alkane-grown microbes
[6] = tested on: Methylobacterium organophilum (CRL 26, NRRL B-11,222); assay: Epoxidation/hydroxylation by washed cell suspensions; format: cell-based; conditions: Propylene + 5 mM stimulator compound
Procedure: as §1, §2, §4, §5

[7] = tested on: Methylosinus trichosporium OB3b (NRRL B-11,196); assay: Methane hydroxylation and alkene epoxidation by washed cell suspensions; format: cell-based; conditions: methane-grown washed cells, 30° C.
Procedure: as §1, with “The shake flasks were inoculated with an inoculating loop of cells from an agar plate containing homogeneous colonies of the microorganisms on the plate (the purity of the isolates were confirmed by microscopic examination).” left out
as §2
as §4, with “A 0.5 ml aliquot of each washed cell suspension (2 mg cells) was put into 10 ml vials at 4° C. which were sealed with a rubber cap.” left out

[8] = tested on: Methylosinus sporium 5 (NRRL B-11,197); assay: as above; format: cell-based; conditions: methane-grown washed cells, 30° C.
Procedure: as §1, with “The shake flasks were inoculated with an inoculating loop of cells from an agar plate containing homogeneous colonies of the microorganisms on the plate (the purity of the isolates were confirmed by microscopic examination).” left out
as §2, §3

[9] = tested on: Methylocystis parvus OBBP (NRRL B-11,198); assay: as above; format: cell-based; conditions: methane-grown washed cells; 0.2 g/100 ml dry weight of cells
Procedure: (§6) The pH of the nutrient medium was adjusted to 7.0 by the addition of acid or base and 50 ml aliquots of the nutrient medium was charged into a plurality of 300 ml shake flasks. […] The isolates had been maintained on agar plates under an atmosphere of methane and air having a 1:1 v/v gas ratio which had been transferred every two weeks. […] The inoculated flasks were sealed air tight and were incubated on a rotary shaker of orbital radius 2.5 cm at 250 rpm and at 30° C. for two days until the turbidity in the medium had developed.
as §2, §4

[10] = tested on: Methylomonas methanica S1 (NRRL B-11,199); assay: as above; format: cell-based; conditions: methane-grown washed cells; 0.2 g/100 ml dry weight of cells
Procedure: as §6, §2, §4

[11] = tested on: Methylomonas albus BG8 (NRRL B-11,200); assay: as above; format: cell-based; conditions: methane-grown washed cells; 0.2 g/100 ml dry weight of cells
Procedure: The pH of the nutrient medium was adjusted to 7.0 by the addition of acid or base and 50 ml aliquots of the nutrient medium was charged into a plurality of 300 ml shake flasks. […] The isolates had been maintained on agar plates under an atmosphere of methane and air having a 1:1 v/v gas ratio which had been transferred every two weeks. The gaseous phase of the inoculated flasks was then replaced with a gas mixture comprised of methane and air having a ratio of 1:1 on a v/v basis. The inoculated flasks were sealed air tight and were incubated on a rotary shaker of orbital radius 2.5 cm at 250 rpm and at 30° C. for two days until the turbidity in the medium had developed.
as §2, §4

c1cnc2c(c1)ccc1cccnc12 [1,10-phenanthroline, reference compound]
% Inhibition, Propylene-Epoxidizing Activity [1]: 93%
% Inhibition, Methane-Hydroxylating Activity [1]: 90%

CC(C)(C)C [2,2-dimethylpropane]
Reaction Rate, 2,2-dimethylpropane to 2,2-dimethylpropanol [2]: 0.085 μmoles/hr/mg biomass

CCC(C)O (centres unmarked) [2-Butanol]
Rate of Product Formation (Propylene Oxide) [3]: 26 nmoles/hr/mg protein
Rate of Product Formation (Propylene Oxide) [4]: 21 nmoles/hr/mg protein
Effect on epoxidation of gaseous n-alkenes [5]: somehow inhibited

Oc1cccc2cccnc12 [8-Hydroxyquinoline, reference compound]
% Inhibition, Propylene-Epoxidizing Activity [1]: 75%
% Inhibition, Methane-Hydroxylating Activity [1]: 80%

CC=O [Acetaldehyde]
Rate of Product Formation (Propylene Oxide) [6]: 13 nmoles/hr/mg protein
Rate of Product Formation (Propylene Oxide) [4]: 154 nmoles/hr/mg protein

C=CC=C [Butadiene]
Conversion rate, butadiene to 1,2-epoxybutene [7]: 2.6 μmole/hr/mg protein
Conversion rate, butadiene to 1,2-epoxybutene [8]: 1.5 μmole/hr/mg protein
Rate of Product Formation (substrate to 1,2-epoxide or alcohol) [1]: 0.63 μmoles/hr/mg of protein

C=CCC [Butene-1]
Conversion rate, butene-1 to 1,2-epoxybutane [7]: 0.45 μmole/hr/mg protein
Conversion rate, butene-1 to 1,2-epoxybutane [8]: 0.8 μmole/hr/mg protein
Rate of Product Formation (substrate to 1,2-epoxide or alcohol) [1]: 2.18 μmoles/hr/mg of protein

O=S(=O)([O-])[O-].[Cu+2] [Cupric Sulfate]
Methane-Oxidizing Activity in presence of metal [1]: 7.1 μmoles/hr/mg protein
Propylene-Oxidizing Activity in presence of metal [1]: 9.0 μmoles/hr/mg protein

[Cl][Cu] [Cuprous Chloride]
Methane-Oxidizing Activity in presence of metal [1]: 7.2 μmoles/hr/mg protein
Propylene-Oxidizing Activity in presence of metal [1]: 9.2 μmoles/hr/mg protein

COC [Dimethylether]
Rate of Product Formation (Propylene Oxide) [6]: 50 nmoles/hr/mg protein

CC [Ethane]
Rate of Product Formation (substrate to 1,2-epoxide or alcohol) [1]: 3.2 μmoles/hr/mg of protein

CCO [Ethanol]
Rate of Product Formation (Propylene Oxide) [3]: 370 nmoles/hr/mg protein
Rate of Product Formation (Propylene Oxide) [6]: 124 nmoles/hr/mg protein
Rate of Product Formation (Propylene Oxide) [4]: 462 nmoles/hr/mg protein

C=C [Ethylene]
Conversion rate, ethylene to ethylene oxide [7]: 1.9 μmole/hr/mg protein
Conversion rate, ethylene to ethylene oxide [8]: 1.1 μmole/hr/mg protein
Conversion rate, ethylene to ethylene oxide [9]: 0.9 μmole/hr/mg protein
Conversion rate, ethylene to ethylene oxide [10]: 0.95 μmole/hr/mg protein
Conversion rate, ethylene to ethylene oxide [11]: 1.2 μmole/hr/mg protein
Rate of Product Formation (substrate to 1,2-epoxide or alcohol) [1]: 1.27 μmoles/hr/mg of protein

[Cl][Fe]([Cl])[Cl] [Ferric Chloride]
Methane-Oxidizing Activity in presence of metal [1]: 4.8 μmoles/hr/mg protein
Propylene-Oxidizing Activity in presence of metal [1]: 5.8 μmoles/hr/mg protein

C=CCCCC [Hexene-1]
Conversion rate, hexene-1 to 1,2-epoxyhexane [7]: 0 μmole/hr/mg protein
Conversion rate, hexene-1 to 1,2-epoxyhexane ([7]; listed as hexene-1): did not produce any detectable epoxide
Conversion rate, hexene-1 to 1,2-epoxyhexane [8]: 0 μmole/hr/mg protein
Conversion rate, hexene-1 to 1,2-epoxyhexane ([8]; listed as hexene-1): did not produce any detectable epoxide

CC(C)C [Isobutane]
Reaction Rate, isobutane to isobutyraldehyde [2]: 0.072 μmoles/hr/mg biomass
Reaction Rate, isobutane to tertiary butanol [2]: 0.051 μmoles/hr/mg biomass

C=CC(=C)C [Isoprene]
Reaction Rate, isoprene to 1,2-epoxyisoprene [2]: 0.064 μmoles/hr/mg biomass

CC(C)O [Isopropanol]
Rate of Product Formation (Propylene Oxide) [3]: 13 nmoles/hr/mg protein
Rate of Product Formation (Propylene Oxide) [6]: 20 nmoles/hr/mg protein
Rate of Product Formation (Propylene Oxide) [4]: 37 nmoles/hr/mg protein

COC(C)=O [Methyl Acetate]
Rate of Product Formation (Propylene Oxide) [6]: 5.0 nmoles/hr/mg protein
Rate of Product Formation (Propylene Oxide) [4]: 21 nmoles/hr/mg protein

COC=O [Methyl Formate]
Rate of Product Formation (Propylene Oxide) [3]: 99 nmoles/hr/mg protein
Rate of Product Formation (Propylene Oxide) [6]: 61 nmoles/hr/mg protein
Rate of Product Formation (Propylene Oxide) [4]: 390 nmoles/hr/mg protein

C=CCCC [Pentane-1, pentene-1]
Conversion rate, Pentane-1 to 1,2-epoxypentane [7]: 0 μmole/hr/mg protein
Conversion rate, pentene-1 to 1,2-epoxypentane [7]: did not produce any detectable epoxide
Conversion rate, Pentane-1 to 1,2-epoxypentane [8]: 0 μmole/hr/mg protein
Conversion rate, pentene-1 to 1,2-epoxypentane [8]: did not produce any detectable epoxide
Rate of Product Formation (substrate to 1,2-epoxide or alcohol) [1]: 0 μmoles/hr/mg of protein

CCCO [Propanol]
Rate of Product Formation (Propylene Oxide) [6]: 66 nmoles/hr/mg protein
Rate of Product Formation (Propylene Oxide) [4]: 243 nmoles/hr/mg protein

CCC=O [Propionaldehyde]
Rate of Product Formation (Propylene Oxide) [3]: 54 nmoles/hr/mg protein
Rate of Product Formation (Propylene Oxide) [4]: 40 nmoles/hr/mg protein

NNC(N)=S [Thiosemicarbazide, reference compound]
% Inhibition, Propylene-Epoxidizing Activity [1]: 97%
% Inhibition, Methane-Hydroxylating Activity [1]: 100%

NC(N)=S [Thiourea, reference compound]
% Inhibition, Propylene-Epoxidizing Activity [1]: 98%
% Inhibition, Methane-Hydroxylating Activity [1]: 98%

c1ccc(-c2ccccn2)nc1 [α,α-Bipyridyl, reference compound]
% Inhibition, Propylene-Epoxidizing Activity [1]: 98%
% Inhibition, Methane-Hydroxylating Activity [1]: 99%

Ferrous Sulfate
Methane-Oxidizing Activity in presence of metal [1]: 4.8 μmoles/hr/mg protein
Propylene-Oxidizing Activity in presence of metal [1]: 5.9 μmoles/hr/mg protein
